Source: ChEMBL document CHEMBL1147723, “Novel chromene-derived selective estrogen receptor modulators useful for alleviating hot flushes and vaginal dryness” (J Med Chem, 2006)
pIC50: −log10 of the molar value. Active and inactive are the calls of the source. No cut-off for these calls is given here.

Tests used:
Estrogen receptor beta = Estrogen receptor beta (Homo sapiens, UniProt Q92731)
Description: Binding affinity to ERbeta

Estrogen receptor [1] = target: T1, Estrogen receptor (Homo sapiens, UniProt Q92731+P03372); details: ishikawa
Description: Inhibition of estrogen receptor in Ishikawa cells

Estrogen receptor [2] = target: T1, Estrogen receptor; details: mcf7
Description: Inhibition of estrogen receptor in MCF7 cells

Estrogen receptor [3] = target: T2, Estrogen receptor (Homo sapiens, UniProt P03372)
T2 sequence (P03372 whole entry): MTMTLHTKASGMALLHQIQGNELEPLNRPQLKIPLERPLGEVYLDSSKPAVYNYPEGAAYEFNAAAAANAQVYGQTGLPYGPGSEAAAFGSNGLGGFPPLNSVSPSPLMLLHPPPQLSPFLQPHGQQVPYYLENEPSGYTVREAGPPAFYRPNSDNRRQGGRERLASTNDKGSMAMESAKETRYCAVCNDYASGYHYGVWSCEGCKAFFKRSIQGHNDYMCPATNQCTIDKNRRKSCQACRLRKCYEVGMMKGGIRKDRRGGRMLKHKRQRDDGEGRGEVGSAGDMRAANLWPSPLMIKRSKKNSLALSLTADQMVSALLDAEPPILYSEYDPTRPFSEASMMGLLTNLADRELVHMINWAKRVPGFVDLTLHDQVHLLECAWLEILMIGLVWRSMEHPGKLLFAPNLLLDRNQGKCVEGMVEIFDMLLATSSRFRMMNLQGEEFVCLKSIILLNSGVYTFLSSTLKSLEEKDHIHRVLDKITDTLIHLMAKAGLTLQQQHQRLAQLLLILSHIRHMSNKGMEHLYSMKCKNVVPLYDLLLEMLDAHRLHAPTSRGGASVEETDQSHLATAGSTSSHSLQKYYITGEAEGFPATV
Description: Binding affinity to ERalpha

Rattus norvegicus [4] = organism: Rattus norvegicus; assay: Reduction in serum cholesterol level in ovariectomized rat; assay type: functional; design: scale not given: the % may be the effect or the level left
Rattus norvegicus [5] = assay: Ability to block estrone-induced increase in uterine wet weight in immature rat at 0.42 mg/kg/day, po after 3 days by uterotropic assay; assay type: functional; details: 72 h
Rattus norvegicus [6] = assay: (§1) Increase in vaginal fluid in ovariectomized rat at […], po; assay type: functional, organism-based; design: dose 1.4 mg/kg
Rattus norvegicus [7] = assay: as §1; assay type: functional, organism-based; design: dose 0.14 mg/kg
[8] = Bioavailability in rat plasma; assay type: ADME, organism-based
Rattus norvegicus [9] = assay: Ability to suppress increase of tail skin temperature in morphine-dependent rat at […].day, po; assay type: functional, organism-based; design: dose 1.4 mg/kg
Rattus norvegicus [10] = assay: (§2) Ability to block estrone-induced increase in uterine wet weight in immature rat at […], po after 3 days by uterotropic assay; assay type: functional; details: 72 h
Rattus norvegicus [11] = organism: Rattus norvegicus; assay: Inhibition of bone loss in ovariectomized rat; assay type: functional, organism-based
Rattus norvegicus [12] = assay: as §2; assay type: functional; details: 72 h; remark: listed apart in the source
Estrogen receptor [13] = target: T1, Estrogen receptor; assay: Agonist activity at estrogen receptor in MCF7 cells; assay type: functional, cell-based
Rattus norvegicus [14] = organism: Rattus norvegicus; assay: Ability to suppress increase of tail skin temperature in morphine-dependent rat; assay type: functional, organism-based

Sequence of Estrogen receptor beta (Q92731 whole entry): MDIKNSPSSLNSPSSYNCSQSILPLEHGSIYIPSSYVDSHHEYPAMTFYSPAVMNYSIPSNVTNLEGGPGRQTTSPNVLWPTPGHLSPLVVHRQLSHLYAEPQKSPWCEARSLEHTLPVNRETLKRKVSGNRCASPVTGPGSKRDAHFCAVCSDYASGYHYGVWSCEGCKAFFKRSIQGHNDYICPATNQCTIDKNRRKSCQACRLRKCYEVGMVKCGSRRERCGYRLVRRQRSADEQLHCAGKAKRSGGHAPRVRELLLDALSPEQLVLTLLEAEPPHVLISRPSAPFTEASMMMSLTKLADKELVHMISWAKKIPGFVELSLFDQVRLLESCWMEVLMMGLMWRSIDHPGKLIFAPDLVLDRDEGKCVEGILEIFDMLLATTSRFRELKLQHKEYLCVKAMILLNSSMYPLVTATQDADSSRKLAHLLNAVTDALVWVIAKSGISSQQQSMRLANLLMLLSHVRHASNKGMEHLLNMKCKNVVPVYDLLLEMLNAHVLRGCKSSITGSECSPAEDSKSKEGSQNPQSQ

Row | SMILES | IC50 (Estrogen receptor [1]) [nM] | bioavailability [8] [%] | EC50 (Estrogen receptor [13]) [nM] | pIC50 (Estrogen receptor beta) | IC50 (Estrogen receptor [2]) [nM] | pIC50 (Estrogen receptor [3]) | Activity (Rattus norvegicus [4]) [%] | inhibition in vivo at 0.42 mg/kg/day (Rattus norvegicus [5]) [%] | Activity (Rattus norvegicus [6]) | Activity (Rattus norvegicus [7]) | Activity (Rattus norvegicus [9]) | inhibition in vivo at […] (Rattus norvegicus [10]) [%] | Activity (Rattus norvegicus [11]) | inhibition in vivo at […] (Rattus norvegicus [12]) [%] | Activity (Rattus norvegicus [14])
1 | Oc1ccc2c(c1)O[C@@H](c1ccc(OCCN3CCCCC3)cc1)C1=C2COc2cc(O)ccc21 | 17.1 | – | – | 8.89 | 416 | 9.21 | – | – | – | – | – | – | – | – | –
2 | CC(C)(C)C(=O)Oc1ccc2c(c1)O[C@H](c1ccc(OCCN3CCCCC3)cc1)C1=C2COc2cc(OC(=O)C(C)(C)C)ccc21 | 175 | 11 | – | < 5.00 | 510 | < 5.00 | 33 | 55 | Active | Active | Active | 75 | Dose-dependent effect | 27 | –
3 | Oc1ccc2c(c1)OC(c1ccc(OCCN3CCCCC3)cc1)C1=C2COc2cc(O)ccc21 (stereo not drawn) | 12 | – | – | – | 110 | – | – | – | – | – | – | – | – | – | –
4 | Oc1ccc2c(c1)O[C@H](c1ccc(OCCN3CCCCC3)cc1)C1=C2COc2cc(O)ccc21 | 43.3 | – | – | 7.69 | 599 | 7.29 | – | – | – | – | – | – | – | – | –

More lines, main results first:

Row | IC50 (Estrogen receptor [1]) [nM] | bioavailability [8] [%] | EC50 (Estrogen receptor [13]) [nM] | SMILES | pIC50 (Estrogen receptor beta) | IC50 (Estrogen receptor [2]) [nM] | pIC50 (Estrogen receptor [3]) | Activity (Rattus norvegicus [4]) [%] | inhibition in vivo at 0.42 mg/kg/day (Rattus norvegicus [5]) [%] | Activity (Rattus norvegicus [6]) | Activity (Rattus norvegicus [7]) | Activity (Rattus norvegicus [9]) | inhibition in vivo at […] (Rattus norvegicus [10]) [%] | Activity (Rattus norvegicus [11]) | inhibition in vivo at […] (Rattus norvegicus [12]) [%] | Activity (Rattus norvegicus [14])
5 | 3800 | – | 71 | CN(C)c1ccc(C2Oc3cc(O)ccc3C3=C2c2ccc(O)cc2OC3)cc1 (stereo not drawn) | – | – | – | – | – | – | – | – | – | – | – | –
6 | 180 | – | – | CN(C)CCOc1ccc(C2Oc3cc(O)ccc3C3=C2c2ccc(O)cc2OC3)cc1 (stereo not drawn) | – | 220 | – | – | – | – | – | – | – | – | – | –
7 | 99 | 9 | – | CC(C)(C)C(=O)Oc1ccc2c(c1)O[C@@H](c1ccc(OCCN3CCCCC3)cc1)C1=C2COc2cc(OC(=O)C(C)(C)C)ccc21 | < 5.00 | 670 | < 6.00 | 33 | 88 | – | – | – | 100 | Dose-dependent effect | 55 | inactive
